The values below come from US20050075398A1, “Neuroprotectin D1 protects against cellular apoptosis, stroke damage, alzheimer's disease and retinal diseases” (priority 2003, published 2005).

The structures appear in SMILES notation.

Assay [1] relates to myeloperoxidase immunoreactivity (PMN leukocytes). The assay is described as follows: Immunohistochemistry of myeloperoxidase after MCA-O. In kind it is in vivo, mouse. The conditions noted are these: infusion 0.4 μg over 48 h; 1 h MCA-O, 48 h reperfusion. As for the experimental part: Immunohistochemistry of myeloperoxidase to assess leukocyte infiltration. After MCA-O, mice were infused by Alzet mini-pumps with vehicle or 10,17S-docosatriene (NPD1). After 48 h, mice were anesthetized and killed by intracardial perfusion of ice-cold saline followed by 10% neutral buffered formalin. Brain tissues were allowed to equilibrate overnight in 4% buffered formalin, followed by 30% sucrose in 0.1 M PBS. Frozen sections were made at 10 μm thickness and mounted on glass slides. Sections were permeablized with 0.6% Triton X-100 for 10 min, washed in PBS, and blocked in 2% goat serum in PBS for 30 min. Incubation with myeloperoxidase/FITC-conjugated antibody (DAKO A/S, Denmark) was performed at 1:200 dilution for 2 h. Sections were washed in Tween-20 in PBS then mounted in Vectashield (Vector, Calif.). Images were recorded by deconvolution microscope (Intelligent Imaging Innovations, Denver, Colo.).
To determine whether 10,17S-docosatriene (NPD1) affected brain ischemia-reperfusion-induced PMN infiltration, either DHA or 10,17S-docosatriene (NPD1) was constantly infused into the third ventricle of a mouse brain during 48 h of reperfusion. […] The data shown represent averages± SD of the indicated number (n) of individual mice. Immunocytochemical changes in polymorphonuclear leukocytes were shown by a green fluorescence that indicated myeloperoxidase immunoreactivity. […]

Assay [2] concerns IL-1β gene expression. Put plainly: HGU133 GeneChip DNA array in HN cells: IL-1β. In kind it is cell-based, human. The conditions noted are these: Aβ42 25 μM, DHA 50 nM or NPD1 50 nM, 18 h, nsc = no significant change.
Assay [3] concerns Bcl-2. The assay is described as follows: Western blot of Bcl-2 in ARPE-19 cells under TNFα/H2O2. Particulars: 50 nM; TNFα plus H2O2 (400 or 800 μM) 6 h. The format is cell-based, human. As for the experimental part: Analysis of pro- and anti-apoptotic proteins in ARPE-19 cells: Bcl-2 family proteins were analyzed by Western-blot analysis. In brief, 20-μg equivalents of each cell extract were subjected to electrophoresis on a 8-16% gel (Promega, Madison, Wis.) at 125 volts for 2 h. The proteins were transferred to nitrocellulose membrane at 30 volts for 1 h at 4° C. The membranes were subjected to treatment with primary antibodies of Bcl-2, Bcl-xL, Bax, and Bad for 1 h at room temperature, and probed 30 min with secondary antibody, goat anti-rabbit Ig:HRPO and HRP-conjugated anti-biotin antibody. (BD Sciences—Pharminogen, San Diego, Calif.) Then proteins were evaluated using an ECL kit. (Amersham Biosciences Corp., Piscataway, N.J.)
Using the same TNFα/H2O2 concentrations, Bcl-2 proteins were assayed. Cells were grown for 72 h after plating, placed in serum-free medium for 1 h, then incubated with TNFα/H2O2 for 6 h. Protein expression and Western-blot analysis were performed as described in Example 13. Data in FIGS. 14A, 14B, 14C and 14D represent four independent experiments with triplicate samples in each case. Anti-apoptotic protein Bcl-xL was enhanced in ARPE-19 cells by TNFα/H2O2 (800 μM) (FIG. 14B, first bar), whereas Bcl-2 was not changed (FIG. 14A, first bar).

In assay [4] the test system is STAT-1. The assay is described as follows: EMSA of STAT-1 in IL-1β-exposed human neural progenitor cells. The format is cell-based. The conditions noted are these: HN progenitor cells. As for the experimental part:
Human neural (HN) progenitor cells in primary culture. HN cells were grown to ˜70% confluence (˜50,000 cells per 3.5-cm diameter well) in 6-well COSTAR plates at 37° C., 5% CO2/20% O2/75% N2 in humidified air at 1 atm (normoxic conditions) in NPMM medium (Clonetics CC-4241) supplemented with hFGF, NSF-1, hEGF, GA-1000, as described by the manufacturer (Clonetics, Walkersville, Md.). HN cells tested negative for HIV-1, hepatitis B and C, mycoplasma, bacteria, yeast, and fungi, and positive for the glial and neuronal markers GFAP, MAP2, and β-tubulin III (Clonetics). […]
Electrophoretic mobility-shift assay (EMSA) of human AP1, HIF-1α, NF-κBp50/p65, and STAT-1α. Nuclear protein extracts (NPXTs) were prepared from one to three 3.5 cm-diameter wells of HN cells and quantitated. NPXTs (5 μg) derived from HN cells were incubated with[γ-^32P]-ATP (˜3000 Ci/mmol)-end-labeled AP1, HIF-1α, NF-κκBp50/p65, or STAT-1α consensus and mutant oligonucleotides in 5-μl volumes, reacted for 30 min on ice, analyzed on 5% or 10% acrylamide/90 mM Tris-borate pH 8.4, 1 mM EDTA (TBE) gels, dried onto 2-mm Whatman filter paper at 80° C. for 2 h, and phosphorimaged using a Typhoon Variable Mode Imager (Amersham Pharmacia Biotech, Piscataway, N.J. ).
(Mobility shift assays separate free from complexed probe on a gel.)

Turning to `CC/C=C\C[C@H](O)\C=C/C=C/C=C/[C@H](O)C/C=C\C/C=C\CCC(=O)O` [NPD1, 10,17S-docosatriene], the “green fluorescence (myeloperoxidase immunoreactivity), ipsilateral brain” value in assay [1] is “surprisingly large reduction”. The “IL-1β gene expression, fold change over untreated controls” value in assay [2] is given as “nsc”. Besides, in assay [3], the “effect on Bcl-2 expression” value is listed as “increased expression”. Also, the “effect on STAT-1” value in assay [4] was “unaffected”.
